pIC50: −log10 of the molar value.
Target: T1, Recombinant human CES1 (CES1b/CES1A1) (Homo sapiens, UniProt P23141)
T1 sequence (P23141 18-567): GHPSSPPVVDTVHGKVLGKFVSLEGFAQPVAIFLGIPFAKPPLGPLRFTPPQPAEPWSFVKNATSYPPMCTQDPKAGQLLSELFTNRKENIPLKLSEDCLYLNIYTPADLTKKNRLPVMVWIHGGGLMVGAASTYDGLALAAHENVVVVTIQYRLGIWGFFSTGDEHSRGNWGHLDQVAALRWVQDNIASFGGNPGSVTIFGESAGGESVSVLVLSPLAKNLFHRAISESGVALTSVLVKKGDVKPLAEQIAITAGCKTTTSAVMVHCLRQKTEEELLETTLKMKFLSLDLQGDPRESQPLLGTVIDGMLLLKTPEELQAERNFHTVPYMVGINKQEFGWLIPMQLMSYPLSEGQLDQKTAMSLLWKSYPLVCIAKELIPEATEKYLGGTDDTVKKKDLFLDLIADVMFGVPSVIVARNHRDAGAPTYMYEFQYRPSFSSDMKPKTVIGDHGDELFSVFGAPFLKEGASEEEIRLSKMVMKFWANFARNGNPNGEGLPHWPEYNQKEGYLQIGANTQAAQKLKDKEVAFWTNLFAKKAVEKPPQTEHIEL
Assay: In vitro inhibition of recombinant CES1
Assay type: biochemical
Settings: for IC50 relative to diltiazem: recombinant CES1, fold higher than IC50 of diltiazem

Row | pIC50 | IC50 relative to diltiazem | Structure (SMILES)
1 | 4.87 |  | C[C@H](CCC(=O)O)[C@H]1CC[C@H]2[C@@H]3[C@H](O)C[C@@H]4C[C@H](O)CC[C@]4(C)[C@H]3CC[C@]12C [Chenodeoxycholic acid]
2 |  | ~10 fold | C[C@H](CCC(=O)NCC(=O)O)[C@H]1CC[C@H]2[C@@H]3[C@H](O)C[C@@H]4C[C@H](O)CC[C@]4(C)[C@H]3CC[C@]12C [Glycochenodeoxycholic acid]
3 |  | more than fourfold higher | C[C@H](CCC(=O)NCCS(=O)(=O)O)[C@H]1CC[C@H]2[C@@H]3[C@H](O)C[C@@H]4C[C@H](O)CC[C@]4(C)[C@H]3CC[C@]12C [Taurochenodeoxycholic acid]
4 | 4.71 |  | C[C@H](CCC(=O)NCCS(=O)(=O)O)[C@H]1CC[C@H]2[C@@H]3[C@H](O)C[C@@H]4C[C@H](O)CC[C@]4(C)[C@H]3C[C@H](O)[C@]12C [Taurocholic acid]
